Calls of active or inactive are those of the source.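 The calls were made as follows: active = compounds whose EC50, the dose giving half of full IDE activation, is 100 µM or lower; inactive = EC50 above 100 µM or not measured.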
Target: Insulin-degrading enzyme (Homo sapiens) (UniProt P14735)
Experiment: WT IDE enzyme activation, cell-free – biochemical, fluorescence polarization, run by assay provider, counter-screen for IDE activator project, late-stage follow-up (AID 624043)
Settings: recombinant IDE, FAbetaB cleavage

Sequence of Insulin-degrading enzyme (Homo sapiens) (P14735 whole entry, looked up): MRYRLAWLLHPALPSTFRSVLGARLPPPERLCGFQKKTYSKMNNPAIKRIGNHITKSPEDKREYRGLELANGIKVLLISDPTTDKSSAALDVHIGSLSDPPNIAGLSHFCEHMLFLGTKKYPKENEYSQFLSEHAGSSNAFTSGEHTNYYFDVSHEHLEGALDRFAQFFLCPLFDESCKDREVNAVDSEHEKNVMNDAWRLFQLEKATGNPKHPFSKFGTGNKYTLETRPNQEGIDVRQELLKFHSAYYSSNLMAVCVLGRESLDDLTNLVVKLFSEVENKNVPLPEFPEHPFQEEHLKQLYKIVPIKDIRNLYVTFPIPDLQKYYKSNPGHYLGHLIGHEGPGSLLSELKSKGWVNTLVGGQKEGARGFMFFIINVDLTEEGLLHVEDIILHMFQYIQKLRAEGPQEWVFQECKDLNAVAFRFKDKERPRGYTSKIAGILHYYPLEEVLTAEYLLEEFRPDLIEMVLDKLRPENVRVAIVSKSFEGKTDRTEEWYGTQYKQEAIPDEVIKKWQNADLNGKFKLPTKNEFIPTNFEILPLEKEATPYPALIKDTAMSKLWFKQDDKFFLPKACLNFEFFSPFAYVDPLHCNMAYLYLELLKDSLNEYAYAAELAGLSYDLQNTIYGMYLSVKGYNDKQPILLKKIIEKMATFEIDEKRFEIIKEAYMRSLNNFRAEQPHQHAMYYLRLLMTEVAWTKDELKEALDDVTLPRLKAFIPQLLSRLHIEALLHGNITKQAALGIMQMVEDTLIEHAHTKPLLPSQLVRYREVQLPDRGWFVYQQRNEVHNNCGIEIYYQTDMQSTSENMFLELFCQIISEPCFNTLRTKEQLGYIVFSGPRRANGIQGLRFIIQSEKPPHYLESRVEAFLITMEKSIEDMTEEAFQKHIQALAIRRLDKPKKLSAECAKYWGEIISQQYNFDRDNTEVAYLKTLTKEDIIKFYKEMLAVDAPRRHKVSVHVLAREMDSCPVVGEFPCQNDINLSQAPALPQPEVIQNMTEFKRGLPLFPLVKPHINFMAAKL

Row | SMILES | EC50
1 | CCC(c1nnnn1CCC(C)C)N1CCN(c2ccccc2)CC1 (stereo not drawn) | > 15 µM (inactive)
2 | CC(C)CCn1nnnc1CN1CCN(c2ccccc2F)CC1 | > 15 µM (inactive)
3 | CC(C)CCn1nnnc1C(C(C)C)N1CCN(c2ccccc2)CC1 (stereo not drawn) | > 15 µM (inactive)

— PubChem BioAssay AID624043 (The Scripps Research Institute Molecular Screening Center, 2012)
